For the assay, the system named is Mus musculus. As to the kind of experiment: Antiinflammatory activity against TPA-induced ear edema in mouse assessed per ear. In kind it is functional.
Take `C[C@@H]1O[C@@H](O[C@H]2[C@H](OC(=O)[C@]34CCC(C)(C)C[C@H]3C3=CC[C@@H]5[C@@]6(C)C[C@H](O)[C@H](O[C@@H]7O[C@H](C(=O)O)[C@@H](O)[C@H](O)[C@H]7O)[C@@](C)(C(=O)O)[C@@H]6CC[C@@]5(C)[C@]3(C)C[C@H]4O)O[C@@H](C)[C@H](O)[C@H]2O)[C@H](O)[C@H](O)[C@H]1O` [ZANHASAPONIN A]: the ID50 came out at 14 µg.

Molecule `C[C@@H]1O[C@@H](O[C@H]2[C@H](OC(=O)[C@]34CCC(C)(C)C[C@H]3C3=CC[C@@H]5[C@@]6(C)C[C@H](O)[C@H](O[C@@H]7O[C@H](C(=O)O)[C@@H](O)[C@H](O)[C@H]7O)[C@@](C)(C(=O)O)[C@@H]6CC[C@@]5(C)[C@]3(C)C[C@H]4O)O[C@@H](C)[C@H](O)[C@H]2O)[C@H](O[C@@H]2OC[C@@H](O)[C@H](O)[C@H]2O)[C@H](O)[C@H]1O` [ZANHASAPONIN B] returned an ID50 of 20 µg. The value for `C[C@@H]1O[C@@H](O[C@H]2[C@H](OC(=O)[C@]34CCC(C)(C)C[C@H]3C3=CC[C@@H]5[C@@]6(C)C[C@H](O)[C@H](O[C@@H]7O[C@H](C(=O)O)[C@@H](O)[C@H](O)[C@H]7O)[C@@](C)(C(=O)O)[C@@H]6CC[C@@]5(C)[C@]3(C)C[C@H]4O)O[C@@H](C)[C@H](O)[C@H]2O)[C@H](O[C@@H]2OC[C@@H](O)[C@H](O[C@@H]3OC[C@@H](O)[C@H](O)[C@H]3O)[C@H]2O)[C@H](O)[C@H]1O` [ZANHASAPONIN C] was 79 µg.

The values are drawn from ChEMBL document CHEMBL1145686, “Three new oleanane saponins from Zanha africana” (1997).
